According to patent US7851637B2, “Compounds and methods for inhibiting the interaction of BCL proteins with binding partners” (Infinity Pharmaceuticals, Inc., priority 2004, dated 2010):

Tests used:
Bcl-2 = Bcl-2 (Homo sapiens, UniProt P10415); assay: Bcl-2 binding affinity analysis (fluorescence polarization binding assay)
Method in brief: (§1)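 Compounds were tested in vitro for association with the purified target, with binding quantified from the change in fluorescence polarization.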

Bcl-xL = Bcl-xL (Homo sapiens, UniProt Q07817); assay: Bcl-xL binding affinity analysis (fluorescence polarization binding assay); set-up: scale not given here
Chain of Bcl-xL (Q07817 whole entry): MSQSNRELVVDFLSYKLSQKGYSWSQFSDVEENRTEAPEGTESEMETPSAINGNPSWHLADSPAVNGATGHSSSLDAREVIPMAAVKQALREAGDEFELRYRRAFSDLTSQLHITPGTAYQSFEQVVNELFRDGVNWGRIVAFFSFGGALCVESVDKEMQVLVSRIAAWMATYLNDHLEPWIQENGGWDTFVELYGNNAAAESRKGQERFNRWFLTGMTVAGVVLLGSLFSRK
Method in brief: as §1

Chain of Bcl-2 (P10415 whole entry): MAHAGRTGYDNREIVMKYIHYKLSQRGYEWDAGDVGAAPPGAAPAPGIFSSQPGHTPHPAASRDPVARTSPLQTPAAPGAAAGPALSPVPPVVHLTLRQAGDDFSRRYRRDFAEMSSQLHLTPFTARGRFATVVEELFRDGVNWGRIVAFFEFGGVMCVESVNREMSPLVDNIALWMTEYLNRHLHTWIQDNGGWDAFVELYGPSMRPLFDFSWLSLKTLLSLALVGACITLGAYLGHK

Row | Ki (Bcl-2) | Bcl-XL binding affinity Ki (Bcl-xL) | Compound
1 | 6000 to 50000 nM | ♯ | C[C@H](O)[C@@H]1[C@H](CO)ON(Cc2cccc(CN(CCN(C)C)Cc3ccccc3)c2)[C@@H]1C(=O)N[C@H]1CCN(Cc2ccccc2)C1 [Compound 518]
2 | < 800 nM | ♯ | C[C@@H]1[C@@H](NC(=O)[C@@H]2[C@H]([C@H](C)O)[C@H](CO)ON2Cc2cccc(N3CCN(S(C)(=O)=O)CC3)c2)C[C@H]2C[C@@H]1C2(C)C [Compound 293]
3 | < 800 nM | ♯ | C[C@@H]1[C@@H](NC(=O)[C@@H]2[C@H]([C@H](C)O)[C@H](CO)ON2Cc2cccc(-c3cccc(C(=O)NCCCN(C)C)c3)c2)C[C@H]2C[C@@H]1C2(C)C [Compound 216]
4 | 800 to 6000 nM | ♯ | C[C@@H]1[C@@H](NC(=O)[C@@H]2[C@H]([C@H](C)O)[C@H](CO)ON2CCCCN(CCN(C)C)CC2CCCCC2)C[C@H]2C[C@@H]1C2(C)C [Compound 553]
5 | < 800 nM | ♯♯ | C[C@@H]1[C@@H](NC(=O)[C@@H]2[C@H]([C@H](C)O)[C@H](CO)ON2Cc2cccc(-c3cccc(C(=O)NCC4CC4)c3)c2)C[C@H]2C[C@@H]1C2(C)C [Compound 145]
6 | < 800 nM | ♯ | COCCNC(=O)c1cccc(-c2cccc(CN3O[C@@H](CO)[C@@H]([C@H](C)O)[C@H]3C(=O)N[C@H]3C[C@H]4C[C@@H]([C@@H]3C)C4(C)C)c2)c1 [Compound 153]
7 | < 800 nM | ♯ | CC(C)[C@@H](CN(C)C)NC(=O)c1cccc(-c2cccc(CN3O[C@@H](CO)[C@@H]([C@H](C)O)[C@H]3C(=O)N[C@H]3C[C@H]4C[C@@H]([C@@H]3C)C4(C)C)c2)c1 [Compound 100]
8 | < 800 nM | ♯ | CC(O)C1C(CO)ON(Cc2cccc(CN(CCN(C)C)Cc3ccccc3-c3ccc(Cl)cc3)c2)C1C(=O)NC1CC2CC(C1C)C2(C)C (centres unmarked) [Compound 409]
9 | 800 to 6000 nM | ♯ | CC(C)C[C@@H](CN(C)C)N(Cc1ccccc1)Cc1cccc(CN2O[C@@H](CO)[C@@H]([C@H](C)O)[C@H]2C(=O)NCc2ccccc2)c1 [Compound 542]
10 | < 800 nM | ♯ | CCN(CC)CCN(CCN(CC)CC)C(=O)c1ccc(-c2cccc(CN3O[C@@H](CO)[C@@H]([C@H](C)O)[C@H]3C(=O)N[C@H]3C[C@H]4C[C@@H]([C@@H]3C)C4(C)C)c2)cc1 [Compound 188]
11 | < 800 nM | ♯ | COc1cccc(CN(CCN(C)C)Cc2cccc(CN3OC(CO)C(C(C)O)C3C(=O)NC3CC4CC(C3C)C4(C)C)c2)c1 (centres unmarked) [Compound 381]
12 | < 800 nM | ♯ | C[C@@H]1[C@@H](NC(=O)[C@@H]2C([C@H](C)O)[C@H](CO)ON2Cc2cccc(CN(CCN(C)C)Cc3ccccc3-c3ccccc3F)c2)C[C@H]2C[C@@H]1C2(C)C (some centres unmarked) [Compound 343]
13 | < 800 nM | ♯♯ | CCCNC(=O)c1cccc(-c2cccc(CN3O[C@@H](CO)[C@@H]([C@H](C)O)[C@H]3C(=O)N[C@H]3C[C@H]4C[C@@H]([C@@H]3C)C4(C)C)c2)c1 [Compound 135]
14 | < 800 nM | ♯ | C[C@H](O)[C@@H]1[C@H](CO)ON(Cc2cccc(N3CCN(C(=O)OCc4ccccc4)CC3)c2)[C@@H]1C(=O)NC1C[C@H]2C[C@@H]([C@@H]1C)C2(C)C (some centres unmarked) [Compound 253]
15 | 800 to 6000 nM | ♯ | C[C@@H]1[C@@H](NC(=O)[C@@H]2C([C@H](C)O)[C@H](CO)ON2Cc2cccc(CN(Cc3ccccc3)C[C@@H]3CCCN3C(=O)OCc3ccccc3)c2)C[C@H]2C[C@@H]1C2(C)C (some centres unmarked) [Compound 439]
16 | < 800 nM | ♯ | COc1cccc(CN(Cc2cccc(CN3OC(CO)C(C(C)O)C3C(=O)NC3CC4CC(C3C)C4(C)C)c2)C(CC(C)C)CN(C)C)c1OC (centres unmarked) [Compound 304]
17 | < 800 nM | ♯♯ | C[C@@H]1[C@@H](NC(=O)[C@@H]2[C@H]([C@H](C)O)[C@H](CO)ON2Cc2cccc(N(CCN(C)C)Cc3ccccc3)c2)C[C@H]2C[C@@H]1C2(C)C [Compound 235]
18 | < 800 nM | ♯ | C[C@H](O)[C@@H]1[C@H](CO)ON(Cc2cccc(-c3ccc(C(=O)N[C@H]4CCN(C)C4)cc3)c2)[C@@H]1C(=O)NC1C[C@H]2C[C@@H]([C@@H]1C)C2(C)C (some centres unmarked) [Compound 231]
19 | < 800 nM | ♯ | COC(=N)c1ccc(-c2cccc(CN3O[C@@H](CO)[C@@H]([C@H](C)O)[C@H]3C(=O)NC3C[C@@H]4CC([C@@H]3C)C4(C)C)c2)cc1 (some centres unmarked) [Compound 270]
20 | 800 to 6000 nM | ♯ | C[C@@H](O)[C@H]1[C@@H](CO)ON(Cc2cccc(C#C[C@@H](O)c3ccccc3)c2)[C@H]1C(=O)NCCCN(C)c1ccccc1 [Compound 48]
21 | 800 to 6000 nM | ♯ | CC(O)[C@H]1[C@@H](CO)ON(Cc2cccc(C#CC(O)c3ccc(F)cc3)c2)[C@H]1C(=O)NCCCN(C)c1ccccc1 (some centres unmarked) [Compound 29]
22 | 800 to 6000 nM | ♯ | C[C@@H]1[C@@H](NC(=O)[C@@H]2[C@H]([C@H](C)O)[C@H](CO)ON2CCCCN(CCN(C)C)Cc2ccccc2Cl)C[C@H]2C[C@@H]1C2(C)C [Compound 549]

Row | Ki (Bcl-2) | Bcl-XL binding affinity Ki (Bcl-xL) | Compound
23 | < 800 nM | ♯ | CC(O)C1C(CO)ON(Cc2cccc(CN3CC(c4ccccc4)CC3CN(C)C)c2)C1C(=O)NC1CC2CC(C1C)C2(C)C (centres unmarked) [Compound 457]
24 | < 800 nM | ♯ | CC(O)C1C(CO)ON(Cc2cccc(CN(CCN(C)C)C(C)(C)c3ccccc3)c2)C1C(=O)NC1CC2CC(C1C)C2(C)C (centres unmarked) [Compound 475]
25 | < 800 nM | ♯♯ | C[C@@H]1[C@@H](NC(=O)[C@@H]2[C@H]([C@H](C)O)[C@H](CO)ON2Cc2cccc(-c3cccc(C(=O)N4CC[C@@H](N(C)C)C4)c3)c2)C[C@H]2C[C@@H]1C2(C)C [Compound 152]
26 | > 50000 nM | ♯ | CCCCC[C@H](O)C#Cc1cccc(CN2O[C@@H](CO)[C@@H]([C@H](C)O)[C@H]2C(=O)NCCC(C)C)c1 [Compound 41]
27 | < 800 nM | ♯ | C[C@@H]1[C@@H](NC(=O)[C@@H]2[C@H]([C@H](C)O)[C@H](CO)ON2Cc2cccc(N3CCN(C(=S)NCc4ccccc4)CC3)c2)C[C@H]2C[C@@H]1C2(C)C [Compound 263]
28 | < 800 nM | ♯ | C[C@@H]1[C@@H](NC(=O)[C@@H]2[C@H]([C@H](C)O)[C@H](CO)ON2Cc2cccc(-c3cccc(C(=O)NCCCCN(C)C)c3)c2)C[C@H]2C[C@@H]1C2(C)C [Compound 113]
29 | < 800 nM | ♯ | CC(O)C1C(CO)ON(Cc2cccc(CNC(CCc3ccccc3)CN(C)C)c2)C1C(=O)NC1CC2CC(C1C)C2(C)C (centres unmarked) [Compound 468]
30 | < 800 nM | ♯ | COc1c(CN2O[C@@H](CO)[C@@H]([C@H](C)O)[C@H]2C(=O)N[C@H]2C[C@H]3C[C@@H]([C@@H]2C)C3(C)C)cccc1-c1ccc(C(=O)N(C)C)cc1 [Compound 174]
31 | 800 to 6000 nM | ♯ | C[C@@H]1[C@@H](NC(=O)[C@@H]2[C@H]([C@H](C)O)[C@H](CO)ON2CCCCN(CCc2ccccc2)CCN(C)C)C[C@H]2C[C@@H]1C2(C)C [Compound 546]
32 | < 800 nM | ♯ | C[C@H](O)[C@@H]1[C@H](CO)ON(Cc2cccc(CN(CCN(C)C)Cc3ccccc3)c2)[C@@H]1C(=O)NC1C[C@H]2C[C@@H]([C@@H]1C)C2(C)C (some centres unmarked) [Compound 221]
33 | 800 to 6000 nM | ♯ | CC(C)C[C@@H](CN(C)C)N(Cc1ccccc1)Cc1cccc(CN2O[C@@H](CO)[C@@H]([C@H](C)O)[C@H]2C(=O)NCc2cccc(-c3ccccc3)c2)c1 [Compound 537]
34 | < 800 nM | ♯ | C[C@@H]1[C@@H](NC(=O)[C@@H]2[C@H]([C@H](C)O)[C@H](CO)ON2Cc2cccc(-c3ccc4c(=O)n(C)n(C)c(=O)c4c3)c2)C[C@H]2C[C@@H]1C2(C)C [Compound 133]
35 | > 50000 nM | ♯♯ | C[C@H](O)[C@@H]1[C@H](CO)ON(Cc2ccc(C#CCN(C)Cc3ccccc3)cc2)[C@@H]1C(=O)NCCC1=CCCCC1 [Compound 38]
36 | < 800 nM | ♯♯ | C[C@@H]1[C@@H](NC(=O)[C@@H]2[C@H]([C@H](C)O)[C@H](CO)ON2Cc2cccc(-c3cccc(C(=O)NCCN4CCOCC4)c3)c2)C[C@H]2C[C@@H]1C2(C)C [Compound 132]
37 | < 800 nM | ♯♯ | CC(C)CNC(=O)c1cccc(-c2cccc(CN3O[C@@H](CO)[C@@H]([C@H](C)O)[C@H]3C(=O)N[C@H]3C[C@H]4C[C@@H]([C@@H]3C)C4(C)C)c2)c1 [Compound 151]
38 | 800 to 6000 nM | ♯♯ | C[C@@H]1[C@@H](NC(=O)[C@@H]2C([C@H](C)O)[C@H](CO)ON2Cc2ccc(C#CC3(N)CCCCC3)cc2)C[C@H]2C[C@@H]1C2(C)C (some centres unmarked) [Compound 30]
39 | < 800 nM | ♯ | CC(O)C1C(CO)ON(Cc2cccc(C(=O)NCc3ccccc3)c2)C1C(=O)NC1CC2CC(C1C)C2(C)C (centres unmarked) [Compound 510]
40 | 800 to 6000 nM | ♯♯ | CC(C)C[C@H](CN(C)C)NC(=O)c1cccc(-c2cccc(CN3O[C@@H](CO)[C@@H]([C@H](C)O)[C@H]3C(=O)N[C@H]3C[C@H]4C[C@@H]([C@@H]3C)C4(C)C)c2)c1 [Compound 99]
41 | 800 to 6000 nM | ♯ | C[C@H](O)[C@@H]1[C@H](CO)ON(Cc2cccc(C#CCNC(=O)c3ccccc3)c2)[C@@H]1C(=O)N[C@H]1C[C@H]2CC([C@@H]1C)C2(C)C [Compound 57]
42 | < 800 nM | ♯ | CC(C)NC(=O)c1cccc(-c2cccc(CN3O[C@@H](CO)[C@@H]([C@H](C)O)[C@H]3C(=O)N[C@H]3C[C@H]4C[C@@H]([C@@H]3C)C4(C)C)c2)c1 [Compound 217]
43 | < 800 nM | ♯ | CC(O)C1C(CO)ON(Cc2cccc(C(=O)NC(CC3CCCCC3)CN(C)C)c2)C1C(=O)NC1CC2CC(C1C)C2(C)C (centres unmarked) [Compound 499]
